In patent US20230286958A1, “PLASMA KALLIKREIN INHIBITORS” (Merck Sharp & Dohme LLC, priority 2020, published 2023):

Experiments:
human Factor XIa = human Factor XIa (Homo sapiens (Human), UniProt P03951); experiment: Factor XIa Assay (fluorogenic substrate GPR-AFC); assay type: biochemical; settings: Factor XIa (FXIa)
Human plasma kallikrein = Human plasma kallikrein (Homo sapiens (Human), UniProt P03952); experiment: Kallikrein Assay (fluorogenic substrate Acetyl-K-P-R-AFC); assay type: biochemical; settings: Plasma Kallikrein (PKal)
Chain of Human plasma kallikrein (P03952 391-638): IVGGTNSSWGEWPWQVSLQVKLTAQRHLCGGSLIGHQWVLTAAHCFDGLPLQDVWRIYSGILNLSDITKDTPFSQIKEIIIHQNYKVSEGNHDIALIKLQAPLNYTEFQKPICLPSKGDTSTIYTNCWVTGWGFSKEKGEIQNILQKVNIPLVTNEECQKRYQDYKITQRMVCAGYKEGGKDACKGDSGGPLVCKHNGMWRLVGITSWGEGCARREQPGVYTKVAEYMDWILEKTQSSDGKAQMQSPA
Chain of Human plasma kallikrein (P03952 20-390 partner): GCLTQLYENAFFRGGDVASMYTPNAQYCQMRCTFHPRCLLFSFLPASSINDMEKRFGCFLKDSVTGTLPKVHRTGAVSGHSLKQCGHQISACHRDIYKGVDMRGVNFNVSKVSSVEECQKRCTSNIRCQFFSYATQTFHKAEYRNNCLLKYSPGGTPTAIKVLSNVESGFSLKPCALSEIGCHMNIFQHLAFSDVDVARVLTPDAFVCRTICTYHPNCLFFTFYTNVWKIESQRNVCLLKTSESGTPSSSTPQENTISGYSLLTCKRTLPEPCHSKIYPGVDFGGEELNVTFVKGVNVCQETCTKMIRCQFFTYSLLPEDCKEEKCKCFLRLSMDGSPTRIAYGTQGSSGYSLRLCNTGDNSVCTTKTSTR
Method in brief: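 Ki is derived from IC50 with the Cheng-Prusoff equation, and IC50 from the inflection point of a four-parameter logistic curve. The rate of AFC release is read with 0.5 nM purified enzyme and […] substrate at room temperature or 37 °C.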

Chain of human Factor XIa (P03951 388-625 limits assumed): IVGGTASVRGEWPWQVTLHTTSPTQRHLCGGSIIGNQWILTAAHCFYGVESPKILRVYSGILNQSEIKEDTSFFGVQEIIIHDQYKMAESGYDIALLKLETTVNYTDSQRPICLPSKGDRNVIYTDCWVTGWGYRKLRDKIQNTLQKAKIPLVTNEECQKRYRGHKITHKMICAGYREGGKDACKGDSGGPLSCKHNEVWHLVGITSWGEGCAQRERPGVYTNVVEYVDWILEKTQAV
Chain of human Factor XIa (P03951 19-387 partner limits assumed): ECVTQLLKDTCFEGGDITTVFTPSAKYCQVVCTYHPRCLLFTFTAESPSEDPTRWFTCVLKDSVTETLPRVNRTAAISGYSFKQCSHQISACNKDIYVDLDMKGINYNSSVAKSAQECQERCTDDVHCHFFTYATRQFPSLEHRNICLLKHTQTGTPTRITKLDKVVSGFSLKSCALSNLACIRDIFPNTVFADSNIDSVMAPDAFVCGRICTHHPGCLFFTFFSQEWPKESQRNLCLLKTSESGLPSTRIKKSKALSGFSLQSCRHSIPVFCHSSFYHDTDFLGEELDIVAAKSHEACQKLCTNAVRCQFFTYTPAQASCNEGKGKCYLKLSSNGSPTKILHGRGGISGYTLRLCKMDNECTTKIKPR

SMILES	IC50 (human Factor XIa) [nM]	IC50 (Human plasma kallikrein) [nM]
Cc1ncc(-c2c(C(F)F)ccc(Cl)c2F)nc1C(=O)Nc1cnn(C(C)c2cnc(N3C[C@H]4C[C@H]4C3=O)c(F)c2C)c1 (single isomer, unassigned) [Example 128, 6-(3-Chloro-6-(difluoromethyl)-2-fluorophenyl)-N-(1-((R or S)-1-(5-fluoro-4-methyl-6-((1R,5S)-2-oxo-3-azabicyclo[3.1.0]hexan-3-yl)pyridin-3-yl)ethyl)-1H-pyrazol-4-yl)-3-methylpyrazine-2-carboxamide]	5270	7.1
Cc1cc(Cn2cc(NC(=O)c3cncc(-c4c(C(F)F)ccc(Cl)c4F)n3)cn2)ncc1N1C[C@H]2C[C@H]2C1=O [Example 65, 6-(3-Chloro-6-(difluoromethyl)-2-fluorophenyl)-N-(1-((4-methyl-5-((1R,5S)-2-oxo-3-azabicyclo[3.1.0]hexan-3-yl)pyridin-2-yl)methyl)-1H-pyrazol-4-yl)pyrazine-2-carboxamide]	> 10000	35.7
[2H]C1([2H])C2CC2C(=O)N1c1ncc([C@H](C)n2cc(NC(=O)c3nc(-c4c(C(F)F)ccc(Cl)c4F)cnc3C)cn2)c(C)n1 (single isomer, unassigned) [Example 178, 6-(3-Chloro-6-(difluoromethyl)-2-fluorophenyl)-3-methyl-N-(1-((S)-1-(4-methyl-2-((1R,5S or 1S,5R)-2-oxo-3-azabicyclo[3.1.0]hexan-3-yl-4,4-d2)pyrimidin-5-yl)ethyl)-1H-pyrazol-4-yl)pyrazine-2-carboxamide]	4530	14.2
Cc1nc(N2C[C@H]3C[C@H]3C2=O)ncc1Cn1cc(NC(=O)c2nc(-c3c(S(C)(=O)=O)ccc(Cl)c3F)cnc2C)cn1 [Example 85, 6-(3 -Chloro-2-fluoro-6-(methylsulfonyl)phenyl)-3-methyl-N-(1-((4-methyl-2-((1R,5S)-2-oxo-3-azabicyclo[3.1.0]hexan-3-yl)pyrimidin-5-yl)methyl)-1H-pyrazol-4-yl)pyrazine-2-carboxamide]	2070	10.1
CCc1ncc(-c2c(C(F)F)ccc(Cl)c2F)nc1C(=O)Nc1cnn(C(C)c2cnc(N3C[C@H]4C[C@H]4C3=O)c(C)c2)c1 (mixture of isomers) [Example 214, 6-(3-Chloro-6-(difluoromethyl)-2-fluorophenyl)-3-ethyl-N-(1-((S and R)-1-(5-methyl-6-((1R,5S)-2-oxo-3-azabicyclo[3.1.0]hexan-3-yl)pyridin-3-yl)ethyl)-1H-pyrazol-4-yl)pyrazine-2-carboxamide]	944	1.2
Cc1cc(C(C)n2cc(NC(=O)c3cc(-c4c(C(F)F)ccc(Cl)c4F)nnc3C)cn2)cnc1N1C[C@H]2C[C@H]2C1=O (single isomer, unassigned) [Example 121, 6-(3-Chloro-6-(difluoromethyl)-2-fluorophenyl)-3-methyl-N-(1-((S or R)-1-(5-methyl-6-((1R,5S)-2-oxo-3-azabicyclo[3.1.0]hexan-3-yl)pyridin-3-yl)ethyl)-1H-pyrazol-4-yl)pyridazine-4-carboxamide]	> 10000	4.5
Cc1ncc(-c2c(C(F)F)ccc(Cl)c2F)nc1C(=O)Nc1cnn(C2(c3cnc(N4C[C@H]5C[C@H]5C4=O)c(C)n3)CC2)c1 [Example 220, 6-(3-Chloro-6-(difluoromethyl)-2-fluorophenyl)-3-methyl-N-(1-(1-(6-methyl-5-((1R,5S)-2-oxo-3-azabicyclo[3.1.0]hexan-3-yl)pyrazin-2-yl)cyclopropyl)-1H-pyrazol-4-yl)pyrazine-2-carboxamide]	> 10000	7.8
Cc1nc(N2C[C@H]3C[C@H]3C2=O)ncc1C(C)n1cc(NC(=O)c2nc(-c3c(C(F)F)ccc(Cl)c3F)cc(=O)n2C)cn1 (single isomer, unassigned) [Example 80, 4-(3-Chloro-6-(difluoromethyl)-2-fluorophenyl)-1-methyl-N-(1-((R or S)-1-(4-methyl-2-((1R,5S)-2-oxo-3-azabicyclo[3.1.0]hexan-3-yl)pyrimidin-5-yl)ethyl)-1H-pyrazol-4-yl)-6-oxo-1,6-dihydropyrimidine-2-carboxamide]	284	25.3
Cc1cc(C(C)n2cc(NC(=O)c3nc(-c4c(OC(F)F)ccc(Cl)c4F)cnc3COC(C)(C)C)cn2)cnc1N1C[C@H]2C[C@H]2C1=O (mixture of isomers) [Example 228, 3-(tert-Butoxymethyl)-6-(3-chloro-6-(difluoromethoxy)-2-fluorophenyl)-N-(1-((R and S)-1-(5-methyl-6-((1R,5S)-2-oxo-3-azabicyclo[3.1.0]hexan-3-yl)pyridin-3-yl)ethyl)-1H-pyrazol-4-yl)pyrazine-2-carboxamide]	602	1.6
Cc1c(Cn2cc(NC(=O)c3cncc(-c4c(C(F)F)ccc(Cl)c4F)n3)cn2)ccc(N2C[C@H]3C[C@H]3C2=O)c1C [Example 48]	> 10000	0.6

More lines, now with the values ahead:

IC50 (human Factor XIa) [nM]	IC50 (Human plasma kallikrein) [nM]	SMILES
782	0.6	Cc1cc(C(C)n2cc(NC(=O)c3nc(-c4c(C(F)F)ccc(Cl)c4F)cnc3C)cn2)cnc1N1C[C@H]2C[C@H]2C1=O (single isomer, unassigned) [Example 119, 6-(3-Chloro-6-(difluoromethyl)-2-fluorophenyl)-3-methyl-N-(1-((S or R)-1-(5-methyl-6-((1R,5S)-2-oxo-3-azabicyclo[3.1.0]hexan-3-yl)pyridin-3-yl)ethyl)-1H-pyrazol-4-yl)pyrazine-2-carboxamide]
> 10000	4.8	Cc1ncc(-c2c(C(F)F)ccc(Cl)c2F)nc1C(=O)Nc1cnn(C(C)c2ccc(N3CC4CC4C3=O)nc2)c1 (single isomer, unassigned) [Example 75, 6-(3-Chloro-6-(difluoromethyl)-2-fluorophenyl)-3-methyl-N-(1-((R or S)-1-(6-((1R,5S or 1S,5R)-2-oxo-3-azabicyclo[3.1.0]hexan-3-yl)pyridin-3-yl)ethyl)-1H-pyrazol-4-yl)pyrazine-2-carboxamide]
> 10000	3.2	Cc1nc(C(C)n2cc(NC(=O)c3nc(-c4c(C(F)F)ccc(Cl)c4F)cnc3C)cn2)ccc1N1C[C@H]2C[C@H]2C1=O (single isomer, unassigned) [Example 59, 6-(3-Chloro-6-(difluoromethyl)-2-fluorophenyl)-3-methyl-N-(1-((R or S)-1-(6-methyl-5-((1R,5S)-2-oxo-3-azabicyclo[3.1.0]hexan-3-yl)pyridin-2-yl)ethyl)-1H-pyrazol-4-yl)pyrazine-2-carboxamide]
1520	0.7	Cc1nc(N2C[C@H]3C[C@H]3C2=O)ncc1C(C)n1cc(NC(=O)c2nc(-c3c(C(F)F)ccc(Cl)c3F)cnc2C)cn1 (single isomer, unassigned) [Example 42]
> 10000	0.6	Cc1nc(C(C)n2cc(NC(=O)c3nc(-c4c(C(F)F)ccc(Cl)c4F)cnc3C)cn2)ccc1N1C[C@H]2C[C@H]2C1=O (single isomer, unassigned) [Example 58, 6-(3-Chloro-6-(difluoromethyl)-2-fluorophenyl)-3-methyl-N-(1-((S or R)-1-(6-methyl-5-((1R,5S)-2-oxo-3-azabicyclo[3.1.0]hexan-3-yl)pyridin-2-yl)ethyl)-1H-pyrazol-4-yl)pyrazine-2-carboxamide]
